Results from patent US12606852B2, “Conversion of lignin-derived monomers to muconate by engineered pseudomonas” (Alliance for Sustainable Energy, LLC, priority 2021, dated 2026).
Where “and” joins values, the source holds several entries; their conditions need not be identical. Identical values can stand only once. Like-named read-outs stand apart in the source and are kept apart here. Values belong to the molecule of their own block, whether it stands above or below them.

What was measured:
[1] = molecular target: T1, Paenibacillus sp. JJ-1b PraI (para-hydroxybenzoate-3-hydroxylase, PHBH), BAH79107, tagless, praI_EC gene SEQ ID NO: 3 (Paenibacillus sp., UniProt C4TP09); test: Steady-state kinetic analysis of PraI (hydroxylation of 4-hydroxybenzoate); assay type: biochemical; settings: for kcat (NAD(P)H): air-saturated, 200 μM 4-hydroxybenzoate, pH 8, 25° C.
T1 construct: His-tagged form only for crystallography

[2] = tested on: Pseudomonas aeruginosa PHBH (para-hydroxybenzoate-3-hydroxylase); settings: reported value, natively produced PHBH, cited from earlier work
[3] = molecular target: Pseudomonas putida KT2440 PobA (para-hydroxybenzoate-3-hydroxylase, PHBH), native, PP_3537, tagless, pobA_EC gene SEQ ID NO: 1 (Pseudomonas putida, UniProt Q88H28); test: Steady-state kinetic analysis of PobA (hydroxylation of 4-hydroxybenzoate); assay type: biochemical; settings: for kcat (NAD(P)H): NADPH varied, air-saturated, 200 μM 4-hydroxybenzoate, pH 8, 25° C.
[4] = tested on: Pseudomonas fluorescens PHBH (para-hydroxybenzoate-3-hydroxylase); settings: read-out: KM^NADPH; reported value, natively produced PHBH; cited from earlier work

T1 sequence (C4TP09 2-394): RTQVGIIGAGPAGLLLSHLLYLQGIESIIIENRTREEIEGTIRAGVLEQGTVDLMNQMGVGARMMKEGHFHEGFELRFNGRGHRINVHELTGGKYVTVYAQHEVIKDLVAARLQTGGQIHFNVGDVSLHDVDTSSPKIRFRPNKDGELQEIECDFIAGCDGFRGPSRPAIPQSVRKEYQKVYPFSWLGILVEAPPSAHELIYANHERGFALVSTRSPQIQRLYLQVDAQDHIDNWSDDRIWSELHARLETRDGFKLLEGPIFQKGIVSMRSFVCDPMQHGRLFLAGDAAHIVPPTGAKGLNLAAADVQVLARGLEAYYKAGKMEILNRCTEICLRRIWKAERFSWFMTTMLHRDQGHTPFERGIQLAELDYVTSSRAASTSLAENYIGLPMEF
Pseudomonas putida KT2440 PobA (para-hydroxybenzoate-3-hydroxylase, PHBH), native, PP_3537, tagless, pobA_EC gene SEQ ID NO: 1, sequence (Q88H28 1-395): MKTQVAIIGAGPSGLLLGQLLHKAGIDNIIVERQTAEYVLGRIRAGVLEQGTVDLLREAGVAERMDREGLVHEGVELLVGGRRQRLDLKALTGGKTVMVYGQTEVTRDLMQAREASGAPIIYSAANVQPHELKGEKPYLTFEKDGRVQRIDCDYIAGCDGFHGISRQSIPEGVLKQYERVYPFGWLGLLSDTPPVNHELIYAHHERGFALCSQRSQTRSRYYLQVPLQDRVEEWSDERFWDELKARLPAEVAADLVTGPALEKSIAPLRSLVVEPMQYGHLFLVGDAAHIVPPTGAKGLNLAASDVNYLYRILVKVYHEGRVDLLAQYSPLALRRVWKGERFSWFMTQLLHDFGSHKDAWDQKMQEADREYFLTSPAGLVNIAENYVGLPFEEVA

Km ([1]; read-out: KM (4-hydroxybenzoate), pH 8): 16 ± 1 µM
Structure (SMILES): O=C(O)c1ccc(O)cc1 [4-hydroxybenzoate]

Structure (SMILES): O=O [O2, molecular oxygen]
Km ([2]; read-out: KM^oxygen): 37 µM
kcat (O2) ([1]; pH 8): 25 ± 2 s⁻¹ and 22 ± 2 s⁻¹
Km ([1]; pH 8, read-out: KM (O2)): 68 µM and 54 µM
kcat (O2) ([3]; pH 8): 53 ± 5 s⁻¹
Km ([3]; pH 8, read-out: KM (O2)): 70 ± 5 µM

Structure (SMILES): NC(=O)C1=CN([C@@H]2O[C@H](COP(=O)(O)OP(=O)(O)OC[C@H]3O[C@@H](n4cnc5c(N)ncnc54)[C@H](O)[C@@H]3O)[C@@H](O)[C@H]2O)C=CC1 [NADH]
kcat (NAD(P)H) ([1]; NADH varied, NADH detection (340 nm)): 25 ± 2 s⁻¹
kcat (NAD(P)H) ([1]; NADH varied, O2 detection (oxygraph)): 22 ± 2 s⁻¹
substrate specificity for NADH (slightly lowered) ([1]; NADH, relative to NADPH): about 60%
utilization as reducing equivalent ([3]; O2 consumption in mixture containing PobA and 4HB): unreactive

Structure (SMILES): NC(=O)C1=CN([C@@H]2O[C@H](COP(=O)(O)OP(=O)(O)OC[C@H]3O[C@@H](n4cnc5c(N)ncnc54)[C@H](OP(=O)(O)O)[C@@H]3O)[C@@H](O)[C@H]2O)C=CC1 [NADPH]
Km [4]: 50 µM
Km ([2]; read-out: KM^NADPH): 23 µM
kcat (NAD(P)H) ([1]; NADPH varied, NADPH detection (340 nm)): 27 ± 2 s⁻¹
kcat (NAD(P)H) ([1]; NADPH varied, O2 detection (oxygraph)): 23 ± 2 s⁻¹
difference in substrate specificity towards NADPH, PobA and PraI ([1]; average, PraI compared with PobA, different combination of the reactants): ≤ two-fold
kcat (NAD(P)H) ([3]; NADPH detection (340 nm)): 50 ± 5 s⁻¹
kcat (NAD(P)H) ([3]; O2 detection (oxygraph)): 47 ± 4 s⁻¹
